Laboratory results taken from a melting point compilation (Tetko et al.; mined from patent text by program, amines drawn as free bases though some values may be those of a salt).

| SMILES | melting point [°C] |
| --- | --- |
| N#Cc1c(C(=Nc2ccccc2)c2ccccc2)n(O)c2ccccc12 | 188 to 190 |
| O=S(=O)(c1cc(Br)c(-c2ccc(Cl)cc2)[nH]1)C(F)(F)F | 155 to 159 |
| CCOC(=O)CC1CCCc2cc(O)c(C(=O)c3ccccc3)cc21 (stereo not given) | 118 to 120 |
| CSc1cccc2nc(SCCN3CCN(CC(=O)Nc4c(C(C)C)cccc4C(C)C)CC3)oc12 | 120 to 121 |
| Cc1cc(C#N)c(Nc2ccccc2[N+](=O)[O-])s1 | 99 to 102 |
| O=C(NC(CCCN1CCN(c2ncc(F)cn2)CC1)c1ccc(F)cc1)c1ccc(F)cc1 (stereo not given) | 147 to 148 |
| CN1C(=O)CC[C@]2(C)c3ccc(Sc4ccc5c([N+](=O)[O-])cccc5n4)cc3CC[C@@H]12 | 149 to 154 |
| O=C1Nc2ccc(Cl)cc2C(C#Cc2ccccc2)(C(F)(F)F)O1 (single isomer, unassigned; (-)) | 178 to 179 |
| CN(C)CCCNC(=O)N1CCN(c2ccccc2)CC1 | 91 to 95 |
| CN(Cc1ccccc1)C1c2ccccc2CCCC1O (stereo not given) | 70 |
| CC(C)(C)c1ccc(-c2cc(-c3ccccc3)c(-c3ccccc3)s2)cc1 | 108 to 112 |
| Cc1ccc2cc(C(=O)NC3(C(=O)O)CCCC3)sc2c1 | 214 to 217 |
| Nc1cc(C(F)(F)F)cc2c(Cl)ccnc12 | 57 to 58 |
| CCCc1cc(C(=O)OCC)ccc1O | 78 to 79 |
| CCOP(=O)(OCC)c1nc(N2CCCC2)nc(N2CCCC2)n1 | 65 to 69 |
| CCCCC[C@H](CC(=O)OC(C)(C)C)C(=O)N1C(=O)OC[C@@H]1C(C)C | 51 to 53 |
| O=c1cc(-c2ccccc2)oc2cc(OCCn3ccnc3)ccc12 | 155 to 159 |
| CCCCc1ncc(CC(=O)NC(CCc2ccccc2)C(=O)O)n1Cc1ccccc1Cl (racemic) | 119 to 120 |
| Cc1ccnc(NCCSCc2nc[nH]c2C)c1C(=O)O | 143 |
| CCCCC(CC(=O)Nc1cc(C(N)=O)ccc1C(C)(C)C)c1cc(Cl)c(OC)cc1OC (stereo not given) | 212 to 214 |
| O=C1CCCC2=C1C(c1cccc([N+](=O)[O-])c1)C=C(C(F)(F)F)N2 (stereo not given) | 215 to 216 |
| O=C(CCCN1CCCCC1)c1ccc2[nH]c3ccc(C(=O)CCCN4CCCCC4)cc3c2c1 | 171 to 173 |
| Cc1nnc(SCC2=C(C(=O)O)N3C(=O)C(N)C3SC2)s1 (stereo not given) | 206 |
| Cc1nc(-n2ccn(Cc3ccc(F)cc3)c2=O)sc1C(=O)NCc1cccnc1 | 158 to 159 |

| SMILES | melting point [°C] |
| --- | --- |
| COC(=O)C[C@H]1C(=O)OCN1C(=O)OCc1ccccc1 | 90 to 93 |
| COc1cc(OC)c(-c2cccs2)cc1/C=C/C(=O)c1ccc(S(=O)(=O)Nc2cc(C)on2)cc1 | 202 to 203 |
| COC(=O)C1CCCn2c(=O)n(CCCl)c(=O)n21 (stereo not given) | 94 to 95 |
| Clc1cccc(CNc2ncc(Cc3ccncc3)c3ccccc23)c1 | 141 to 142 |
| O=C1c2cc(S(=O)(=O)N3CCOCC3)ccc2SC12CC2 | 162 to 165 |
| c1ccc(N2CCN(c3ccccc3)C2Oc2ccc(C3N(c4ccccc4)CCN3c3ccccc3)cc2)cc1 | 218 to 221 |
| CC(C)OC(=O)OCOC(=O)[C@H]1[C@@H]2CC[C@@](N)(C(=O)O)[C@@H]21 | 196 to 197 |
| O=CNC1=NN(c2ccc(Cl)cc2)C(c2ccccc2)C1 (stereo not given) | 164 to 166 |
| CCCCCc1cccn1NS(=O)(=O)C1CCCC=C1C(=O)OCC (stereo not given) | 60 to 61 |
| CCOC(=O)C(Cc1ccccc1)NC(=O)c1cc2cc(Cl)ccc2[nH]1 (stereo not given) | 146 to 147 |
| C=CCC(C(=O)NCC#CCN(C)C)(c1ccccc1)c1ccccc1 | 107 to 109 |
| Cc1ccc(C)c(-c2ccc(C#N)c(C)c2)c1 | 96 to 97 |
| O=C1NCc2ccc(OCCCCN3CCN(c4cccc(Cl)c4Cl)CC3)nc2N1 | 166 to 167 |
| COc1ccc(C(=O)Nc2cccnc2)c2c1oc1ccc(NC(C)=O)cc12 | > 250 |
| Oc1cccc(-c2nc(-c3cccnc3)no2)c1 | > 200 |
| O=C(O)c1ccc(S(F)(F)(F)(F)F)cc1 | 188 to 190 |
| O=C(Cc1ccc(Cl)cc1)N1CCc2cc(S(=O)(=O)N3CCN(c4cccc(Cl)c4)CC3)ccc21 | 186 to 187 |
| O=C(O)c1ccc(CNS(=O)(=O)c2ccc(Br)cc2)cc1 | 268 to 271 |
| CCOC(=O)C1=C(N)N=C(SCC)C(C(=O)OCC)C1c1cccc(C#N)c1 (stereo not given) | 153 |
| O=C1NC(=O)C(Cc2ccc(OCCON=Cc3ccc(-c4ccccc4)nc3)cc2)S1 (stereo not given) | 102 to 104 |
| O=[N+]([O-])c1cccc(C2Nn3cc(-c4ccc(-c5ccccc5)cc4)nc3S2)c1 (stereo not given) | 263 to 265 |
| CN1Cc2cncn2-c2ccccc2C1=O | 212 to 213 |
| COCc1noc(-c2ncn3c2CN(C)C(=O)c2c(Cl)cccc2-3)n1 | 213 to 215 |
| CC(C)(SCc1cc2cc(C(F)(F)F)ccc2n1S(=O)(=O)c1ccccc1)C(=O)O | 90 |

| SMILES | melting point [°C] |
| --- | --- |
| NSc1ccc([N+](=O)[O-])cc1C(Cl)(Cl)Cl | 105 |
| O=C(O)c1c(CNS(=O)(=O)c2cccc(Cl)c2)nn(-c2ccc(Cl)cc2Cl)c1-c1ccc(Cl)cc1 | 211 |
| Cc1cc(C)nc(NC(=O)NS(=O)(=O)c2ccccc2C(F)F)n1 | 190 to 195 |
| CC(CN1CC=C(c2cccs2)CC1)N(C(=O)C1CC=CCC1)c1ccccn1 (stereo not given) | 92 to 96 |
| N#CC1=C(c2cccs2)Nc2n[nH]cc2C1c1ccccc1Cl (stereo not given) | 174 |
| COc1ccc2c(c1)CC(C(N)=O)N2 (stereo not given) | 228 to 229 |
| Cc1nc2c(OCc3c(Cl)ccc(S(=O)(=O)N4CCC[C@H]4C(=O)NCCCN)c3Cl)cccn2c1Br | 75 |
| CC(C)(C(=O)O)C1OCCc2ccccc21 (stereo not given) | 110 to 116 |
| OC1(c2ccccc2)CCN(CCN2CCN(Cc3cc(C(F)(F)F)cc(C(F)(F)F)c3)CC2c2ccc(Cl)c(Cl)c2)CC1 (stereo not given) | 71 to 72 |
| C#CCCCCCC(=O)Nc1nc2nn(C)cc2c2nc(-c3ccco3)nn12 | 204 to 208 |
| CCOC(=O)N[C@@H]1[C@H](O)C(=O)N2[C@H](c3ccccc3)OC[C@@H]12 | 176 to 178 |
| CCOC(=O)C(C#N)=NOS(C)(=O)=O | 79 to 83 |
| Cc1ccc2c(c1)CNCC2c1ccc(O)c(O)c1 (stereo not given) | 192 to 195 |
| CCOC(=O)C(C#N)=Cc1ccc([N+](=O)[O-])cc1C | 180 to 210 |
| CCOC(=O)c1nccn1-c1nc(-c2ccc(Cl)cc2)c(CCCOc2ccccc2OC)o1 | 90 to 91 |
| COc1cc(NS(=O)(=O)c2ccc(N3CCNC3=O)cc2)cc(OC)c1 | 200 to 201 |
| COC(=O)C1=C(c2ccccc2)C(c2ccccc2)OC1=O (stereo not given) | 113 to 115 |
| Cc1c(Cl)cccc1NS(=O)(=O)c1cc(S(=O)(=O)Nc2cccc(Cl)c2C)c2ccccc2c1O | 245 to 247 |
| CC(C)(C)CCC(=N)NC(=S)Nc1ccc(Cl)cc1 | 135 to 137 |
| Cc1cc(Cl)cc(C(=O)N(Cc2ccccc2)C2(C)CNC2)c1NC(=O)c1cc(C(F)(F)F)nn1-c1ncccc1Cl | 127 to 130 |
| Nc1nc2c(ncn2COCCOC(=O)c2ccccc2)c(=O)[nH]1 | 222 to 226 |
| CC#CCOc1cc(Nc2ccccc2)ncn1 | 159 |
